Laboratory results taken from patent US7781580B2, “Stilbene derivatives as new cancer therapeutic agents” (Virginia Commonwealth University, priority 2007, dated 2010).

Experiments:
Tubulin (>99% pure) = assay: tubulin polymerization assay (OD 340 nm); format: biochemical; details: OD340 nm; nocodazole and paclitaxel 10 μM
Protocol: FIG. 3a-d. Stilbenes inhibit tubulin polymerization. (a) Effect of stilbene 4a. Pure tubulin was incubated with various concentrations of stilbene 4a, 10 μM nocodazole, and 10 μM paclitaxel in the polymerization buffer. The OD at 340 nm was monitored every minute by SpectraMAX 250 and plotted against time. (b) Effect of stilbene 4c. (c) Comparison of same concentrations of stilbenes 4a, 4a trans, 4c and 4c trans with control. […] Tubulin was incubated with [^3H]-colchicine and various concentrations of different stilbenes for 20 min. Tubulin was then separated from the unbound [^3H]-colchicine by Microcon-30 and washed three times with PBS. The radioactivity of the tubulin was counted. […] All experiments were done in triplicates.
The tubulin polymerization assay kit was purchased from Cytoskeleton (Denver, Colo.). Tubulin (>99% pure) was mixed with general tubulin buffer (GTB, 80 mM PIPES pH 6.9, 2 mM MgCl2, 0.5 mM EGTA, and 1 mM GTP) in a 96-well plate at 37° C. Absorbance at 340 nm was measured every 1 min for 60 min by SpectraMAX 250 (Molecular Devices, Sunnyville, Calif.). Analysis of the results was performed by SoftMAX Pro version 1.2.0 from the same company.

[1] = system: SNU423 hepatocellular carcinoma cells; assay: Alamar Blue cell growth inhibition, SNU423; format: cell-based; details: SNU423
Protocol: Cell growth was measured by Alamar Blue™ staining and the OD absorbance at 570 and 600 nm was determined by a microplate reader. The percentage of cell growth inhibition was calculated and compared with the control cells that were treated with 0.1% DMSO, the vehicle for the stilbene compounds.
Various cancer cell lines were grown in 96-well plates for drug sensitivity assays. Once cells achieved 50% confluence, the incubation media was changed to the same cell growth media with different concentrations of the tested compounds or vehicle alone. Cells were then incubated for 48 hours before the cell growth inhibition study. To determine the degree of cell growth inhibition, 1/10 volume of Alamar Blue™ solution was added to each well and optical density (OD) at 570 and 600 nm was determined. The percentage of growth inhibition was calculated according to the manufacturer's formula as follows: The percentage of growth is [(117216×A570)−(80586×A600)]/[(117216×A^o570)−(80586×A^o600)]×100. In this formula, A570 is the absorbance of the treated samples at 570 nm; A600 is the absorbance of the treated samples at 600 nm; A^o570 is the absorbance of the […] samples at 570 nm; and A^o600 is the absorbance of the untreated samples at 600 nm. The two constants, 117216 and 80586, are the extinction coefficients of Alamar Blue™ at 570 and 600 nm respectively. Each concentration was repeated in triplicate to minimize the error.
We first tested the cytotoxic effect of various stilbene derivatives for their in vitro efficacy of suppressing tumor cell proliferation. Cells were first plated in 96-well plates at 50% confluence and treated with 0, 0.01, 0.03, 0.1, 0.3, 1.0, 3.0, 10 μM concentrations of stilbene derivatives for 48 hours in triplicate. Alamar Blue™ reagent was added into each well at 1/10 volume and incubated for 2 hours before quantification of the absorbance at 570 and 600 nm.

[2] = system: c-kit-positive progenitor cells (engraftment); assay: bone marrow transplantation of stilbene-treated progenitor cells; format: in vivo, mice; details: cells incubated at 0.1 or 0.5 μM for 16 hours
Protocol: FIG. 16. (a) Effect of stilbenes in normal bone marrow progenitor cells. c-kit-positive bone marrow mononuclear cells were isolated for incubation with stilbenes 4a or 4c at 0.1 or 0.5 […] for 16 hours. Cells were harvested for fixation and PI staining. Cell cycle analysis and quantification of the subG0/1 population were analyzed by FACScan flow cytometry. The percentages of the apoptotic population were indicated. Shown are the representatives of two independent experiments. (b) Effect of stilbenes in HL60 cells as positive control. HL60 cells were treated with stilbenes 4a or 4c in the same medium as the positive control. (c) Colony forming assay of the stilbene-treated c-kit-positive cells. […] Cells were incubated for 14 days and the grossly visible colonies were counted. […] Mice were monitored for survival and lineage-specific donor engraftment by flow cytometry analysis of peripheral blood. […]
C57BL/6J (H2b, CD45.2) mice served as bone marrow donors and were between 6-10 weeks of age. […] Peripheral blood engraftment in recipient mice was assessed by flow cytometry analysis for CD3+ (145-2C11; BD Biosciences, San Jose, Calif.) T-cells, B220+ (RA3-6B2) B-cells, Mac1+ (M1/70.15) monocytes, and Gr1+ (8C5) granulocytes and distinguished between donor versus recipient with anti-CD45.1 (A20) and anti-CD45.2 (104) monoclonal antibodies.

[3] = system: UCI101 ovarian cancer cells; assay: Western blot of signal transduction events, UCI101; format: cell-based
Protocol: All these agents are microtubule interfering agents but with different binding sites. Cells were harvested at 0, 4, 8, 16 and 36 hours after drug treatment for Western blot analysis. […] Phosphorylation of both Cdc25C and Cdc2 disappeared after 16 hours and slightly recovered at 36 hours. […] Akt phosphorylation decreased after 16 hours of treatment.
In order to understand the mechanism of resistance of stilbenes, various signal transduction pathways were investigated to examine how cells respond to stilbene treatment. UCI101 ovarian cancer cells were treated with stilbenes 4a, 4c or paclitaxel (Taxol) at 0.1 μM for 0, 4, 8, 16 and 36 hours. Cells were harvested for Western blotting. Changes in the kinases involved in cell cycle progression from G2-M transition were first determined in Cdc2, Cdc25c, and mitotic spindle check point regulator BubR1. […] 36 hours after treatment, rephosphorylation of Cdc2 was observed. […] The higher molecular weight isomer of Cdc25c, the mitotic form, increased at 16 and 36 hours. […] A similar study was then performed with other microtubule interfering agents such as combretastatin A4, 13a and vincristine for comparison. A similar trend was observed among these three microtubule interfering agents (FIG. 18).

[4] = system: tubulin (colchicine site); assay: [3H]-colchicine competition for binding tubulin; details: 20 min, 37° C.
Protocol: FIG. 3a-d. […] (a) Effect of stilbene 4a. Pure tubulin was incubated with various concentrations of stilbene 4a, 10 μM nocodazole, and 10 μM paclitaxel in the polymerization buffer. The OD at 340 nm was monitored every minute by SpectraMAX 250 and plotted against time. (b) Effect of stilbene 4c. (c) Comparison of same concentrations of stilbenes 4a, 4a trans, 4c and 4c trans with control. […] The radioactivity of the tubulin was counted. […] All experiments were done in triplicates.
Tubulin retained in the Microcon was washed three times with PBS. The radioactivity of the final concentrated tubulin was determined by a scintillation counter.

[5] = system: c-kit positive marrow progenitor cells; assay: bone marrow c-kit-positive progenitor cells: cell cycle and colony forming assay; format: cell-based
Protocol: FIG. 16. (a) Effect of stilbenes in normal bone marrow progenitor cells. c-kit-positive bone marrow mononuclear cells were isolated for incubation with stilbenes 4a or 4c at 0.1 or 0.5 […] for 16 hours. Cells were harvested for fixation and PI staining. Cell cycle analysis and quantification of the subG0/1 population were analyzed by FACScan flow cytometry. The percentages of the apoptotic population were indicated. Shown are the representatives of two independent experiments. (b) Effect of stilbenes in HL60 cells as positive control. HL60 cells were treated with stilbenes 4a or 4c in the same medium as the positive control. (c) Colony forming assay of the stilbene-treated c-kit-positive cells. A fraction of the cells in (a) were diluted and plated on methylcellulose medium at various densities. Cells were incubated for 14 days and the grossly visible colonies were counted. […] Isolated bone marrow c-kit-positive progenitor cells were incubated with DMSO or stilbenes 4a or 4c at 0.1 or 0.5 μM for 16 hours and injected into tail veins of CD45 congenic mice lethally irradiated with 1200 cGy. Mice were monitored for survival and lineage-specific donor engraftment by flow cytometry analysis of peripheral blood. The percentage of donor cells in T, B, and granulocytic series of the recipients were studied at 7 and 14 weeks after transplantation. Stilbene treated c-Kit progenitor cells had the same percentage as the DMSO treated control in all series.
Mouse bone marrow was harvested from femur and tibia of […], subjected to red blood cell lysis, and labeled with anti-c-kit (3C11; CALTAG Laboratories, Burlingame, Calif.) and streptavidin-conjugated microbeads for MACS separation (Miltenyi Biotech, Auburn, Calif.). The c-kit positive marrow progenitor cells were incubated in Iscove's Modified Eagle's Media supplemented with 30% fetal bovine serum, erythropoietin, stem cell factor and interleukin-3 with or without stilbenes 4a or 4c. The ability of long-term proliferation of the c-kit-positive cells was evaluated with colony forming assay. Cells were first treated with DMSO, stilbenes 4a or 4c for 5 h and a fraction of the cells (4000 cells) were plated in the same enriched culture media with methylcellulose for colony forming assays. The grossly visible colonies were counted after 14 days of incubation.

COc1cc(/C=C\c2ccc(OC)c(O)c2)cc(OC)c1 [4c, (Z)5-[2-(3,5-Dimethoxy-phenyl)-vinyl]-2-methoxy-phenol] was tested, and the “effect on tubulin polymerization” value (Tubulin (>99% pure)) was “suppressed tubulin polymerization in a dose-dependent manner but less potent than stilbene 4a”, the “relative potency” value [1] was “much more potent than the trans counterparts” and the “radioprotection of lethally irradiated mice by treated progenitor cells” value [2] was “all mice were rescued from lethal irradiation”. For the same compound, the “phosphorylation of Stat3” value ([3]; 0.1 μM) was “transient increase in phosphorylation at 4 and 8 hours”, the “phosphorylation of Cdc2 at Tyr15” value ([3]; 0.1 μM, 16 hours) was “decreased dramatically” and the “phosphorylation of Chk1” value ([3]; 36 hours) was “do not cause more phosphorylation of Chk1”. The “competition with [3H]-colchicine for tubulin” value [4] was “dose-dependent suppression of tubulin-colchicine interaction”, the “cell cycle of marrow progenitor cells at 0.1 μM” value [5] was “not affected” and the “toxicity to normal bone marrow progenitor cells versus leukemia cells” value [5] was “much less toxic to normal bone marrow progenitor cells”. The “cell cycle of marrow progenitor cells at 0.5 μM” value ([5]; BALB/c, mouse, 16 h, 0.5 μM) was “small increase in subG0/1 and G2 population”.
